According to publication PMC7694773, “Synthesis, 3D-QSAR, and Molecular Modeling Studies of Triazole Bearing Compounds as a Promising Scaffold for Cyclooxygenase-2 Inhibition” (Pharmaceuticals, 2020):
“And” between values parts separate entries of the source, which are not always exact repeats. Equal values may be shown once. Read-outs that look alike come from different tables or passages of the source.

How the values were obtained:
egg albumin = molecular target: T1, egg albumin (Gallus gallus, UniProt P01012); assay: In situ anti-inflammatory assay: inhibition of protein (albumin) denaturation; settings: for inhibition at 1000 µM / % of inhibition ± SEM at conc. 0.1 / % of inhibition ± SEM at conc. 1 / % of inhibition ± SEM at conc. 10 / % of inhibition ± SEM at conc. 100: protein denaturation, three replicates; for inhibition at 1000 µM: conc. 1000 µM, read-out: % of inhibition ± SEM at conc. 1000; for % of inhibition ± SEM at conc. 0.1: conc. 0.1 (µM); for % of inhibition ± SEM at conc. 1: conc. 1 (µM); for % of inhibition ± SEM at conc. 10: conc. 10 (µM); for % of inhibition ± SEM at conc. 100: conc. 100 (µM)
T1 sequence (P01012 1-386): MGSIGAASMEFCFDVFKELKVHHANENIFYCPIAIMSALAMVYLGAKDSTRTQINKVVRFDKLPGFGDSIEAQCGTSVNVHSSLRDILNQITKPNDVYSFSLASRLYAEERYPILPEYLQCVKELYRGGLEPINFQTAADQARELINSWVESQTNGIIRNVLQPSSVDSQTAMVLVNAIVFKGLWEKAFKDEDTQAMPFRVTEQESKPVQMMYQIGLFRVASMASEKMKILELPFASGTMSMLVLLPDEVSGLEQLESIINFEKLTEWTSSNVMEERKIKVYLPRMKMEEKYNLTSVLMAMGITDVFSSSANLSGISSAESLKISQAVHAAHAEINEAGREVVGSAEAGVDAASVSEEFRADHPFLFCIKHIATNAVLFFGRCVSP
Experimental: Protein denaturation is used for the evaluation of anti-inflammatory activity. In this methodology, generally, tertiary and secondary protein structures will typically be destroyed by the application of an external molecule or stress. The biological function of most bio-proteins is lost if it is denatured. It is well reported that a basis of inflammation is denaturation of protein.
The reaction mixture is molecules with serial dilutions (1000, 100, 10, 1, 0.1 µM), phosphate buffered saline (PBS; pH 6.4), and egg albumin. The control used was double distilled water (equal volume). […] After attaining ambient temperature, the absorbance of samples was measured spectrophotometrically at 660 nm using vehicle as blank. […] The experiment was performed in triplicate. Percent inhibition of protein denaturation was calculated using the Equation Inhibition (%) of protein denaturation inhibition (%) = (AC − AS)/AC × 100 where AC: absorbance of control, AS: absorbance of sample.

human recombinant COX-2 = molecular target: T2, human recombinant COX-2 (Homo sapiens, UniProt P35354); assay: In vitro COX-2 inhibition, enzyme immunoassay kit (Cayman item no. 560131); format: biochemical
T2 construct: purchased Cayman Chemical 560131
T2 sequence (P35354 18-604): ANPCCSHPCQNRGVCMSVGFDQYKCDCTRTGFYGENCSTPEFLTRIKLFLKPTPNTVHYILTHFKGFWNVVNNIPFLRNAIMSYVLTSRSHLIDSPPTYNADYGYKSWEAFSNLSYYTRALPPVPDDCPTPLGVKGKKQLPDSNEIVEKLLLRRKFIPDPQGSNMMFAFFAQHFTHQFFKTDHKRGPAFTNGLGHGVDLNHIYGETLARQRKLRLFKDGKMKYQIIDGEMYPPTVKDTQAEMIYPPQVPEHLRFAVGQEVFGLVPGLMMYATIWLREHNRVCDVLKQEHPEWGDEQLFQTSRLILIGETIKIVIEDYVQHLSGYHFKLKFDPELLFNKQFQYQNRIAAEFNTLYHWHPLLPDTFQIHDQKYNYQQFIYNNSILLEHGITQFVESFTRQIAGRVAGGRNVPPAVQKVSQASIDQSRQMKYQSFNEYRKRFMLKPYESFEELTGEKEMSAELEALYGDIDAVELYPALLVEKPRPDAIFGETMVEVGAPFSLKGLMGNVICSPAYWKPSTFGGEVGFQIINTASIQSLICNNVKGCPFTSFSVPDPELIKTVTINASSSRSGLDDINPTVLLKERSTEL
Text: (§1) The in vitro COX-1/COX-2 isozyme inhibition studies measure the ability of tested compounds to inhibit bovine COX-1 and human recombinant COX-2 using an enzyme immunoassay (COX inhibitor screening assay kit, item no. 560131) according to the manufacturer’s instructions. […].

bovine COX-1 = molecular target: T3, bovine COX-1 (Ovis aries, UniProt P05979); assay: In vitro COX-1 inhibition, enzyme immunoassay kit (Cayman item no. 560131); format: biochemical; settings: mean of two determinations
T3 construct: purchased Cayman Chemical 560131
T3 sequence (P05979 25-600): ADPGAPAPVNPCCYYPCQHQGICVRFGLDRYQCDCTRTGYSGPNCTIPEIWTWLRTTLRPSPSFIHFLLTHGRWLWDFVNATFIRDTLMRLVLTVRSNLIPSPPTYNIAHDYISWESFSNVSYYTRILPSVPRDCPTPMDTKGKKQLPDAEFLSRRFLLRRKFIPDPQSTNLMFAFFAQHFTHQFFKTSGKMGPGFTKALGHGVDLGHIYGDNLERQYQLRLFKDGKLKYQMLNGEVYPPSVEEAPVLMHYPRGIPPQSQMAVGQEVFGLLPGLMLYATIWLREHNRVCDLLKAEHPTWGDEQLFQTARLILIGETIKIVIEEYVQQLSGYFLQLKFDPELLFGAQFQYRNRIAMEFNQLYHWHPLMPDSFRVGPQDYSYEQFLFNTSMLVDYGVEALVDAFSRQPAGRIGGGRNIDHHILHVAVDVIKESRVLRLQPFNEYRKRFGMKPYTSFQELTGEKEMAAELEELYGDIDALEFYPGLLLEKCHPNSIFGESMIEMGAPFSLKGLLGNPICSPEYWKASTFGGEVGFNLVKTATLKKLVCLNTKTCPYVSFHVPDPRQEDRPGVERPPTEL
Text: as §1

[1] = human recombinant COX-2, mean of two determinations, read-out: IC50 COX-2
[2] = pIC50 = −Log (IC50) of the COX-2 IC50, read-out: Activity (experimental pIC50, COX-2) (converted)

Structure (SMILES)	inhibition at 1000 µM (egg albumin) [%]	% of inhibition ± SEM at conc. 0.1 (egg albumin) [%]	% of inhibition ± SEM at conc. 1 (egg albumin) [%]	% of inhibition ± SEM at conc. 10 (egg albumin) [%]	% of inhibition ± SEM at conc. 100 (egg albumin) [%]	LogIC50 protein denaturation (egg albumin; GraphPad prism curve fit, IC50 in µM (Figure 3))	IC50 (egg albumin; non-linear regression, sigmoidal dose-inhibition fit, GraphPad prism)	melting point [°C]	COX-2 S.I. (selectivity index, COX-1 IC50/COX-2 IC50) (human recombinant COX-2)	IC50 (human recombinant COX-2; [1]) [nM]	IC50 (human recombinant COX-2; [2])	IC50 (bovine COX-1) [µM]
O=C(O)Cc1ccccc1Nc1c(Cl)cccc1Cl [Diclofenac sodium, reference compound]	94.2	32.14±1.01	61.45±1.21	67.32±0.95	82.43±1.87							
COc1ccc(C=Nn2c(S)nnc2COc2ccc3ccccc3c2)cc1 [Compound 9d, 4-((4-methoxybenzylidene)amino)-5-((naphthalen-2-yloxy)methyl)-4H-1,2,4-triazole-3-thiol]	51	8.97±0.97	18.95±1.04	31.86±0.96	49.08±1.05	0.9126	8.17 µM and 8.18 µM	177 to 178	53.1	150	150 nM	7.97
Nc1ncc(Sc2nnc(COc3ccc4ccccc4c3)n2N=Cc2cccc([N+](=O)[O-])c2)o1 [Compound 11c, 5-((5-((naphthalen-2-yloxy)methyl)-4-((3-nitrobenzylidene)amino)-4H-1,2,4-triazol-3-yl)thio)oxazol-2-amine]								196 to 198	252.6	50	50 nM and 49 nM	12.6
O=C(CCl)Sc1nnc(COc2ccc3ccccc3c2)n1N=Cc1ccccc1O [Compound 10b]									70.6	140	140 nM	9.89
COc1ccc(C=Nn2c(COc3ccc4ccccc4c3)nnc2Sc2cnc(N)o2)cc1 [Compound 11d, 5-((4-((4-methoxybenzylidene)amino)-5-((naphthalen-2-yloxy)methyl)-4H-1,2,4-triazol-3-yl)thio)oxazol-2-amine]								70 to 71	192.2	60	60.1 nM	11.5
Nc1ncc(Sc2nnc(COc3ccc4ccccc4c3)n2N=Cc2ccccc2)s1 [Compound 12a, 5-((4-(benzylideneamino)-5-((naphthalen-2-yloxy)methyl)-4H-1,2,4-triazol-3-yl)thio)thiazol-2-amine]								145 to 146	98.3	100	100 nM	9.83
O=[N+]([O-])c1cccc(C=Nn2c(S)nnc2COc2ccc3ccccc3c2)c1 [Compound 9c, 5-((naphthalen-2-yloxy)methyl)-4-((3-nitrobenzylidene)amino)-4H-1,2,4-triazole-3-thiol]								200 to 202	72.5	130	130 nM	9.43
Nc1ncc(Sc2nnc(COc3ccc4ccccc4c3)n2N=Cc2ccccc2)o1 [Compound 11a, 5-((4-(benzylideneamino)-5-((naphthalen-2-yloxy)methyl)-4H-1,2,4-triazol-3-yl)thio)oxazol-2-amine]								162 to 164	154.6	80	80 nM	12.4
COc1ccc(C=Nn2c(COc3ccc4ccccc4c3)nnc2SC(=O)CCl)cc1 [Compound 10d]									94.1	110	110 nM	10.3
Nc1ncc(Sc2nnc(COc3ccc4ccccc4c3)n2N=Cc2ccccc2O)s1 [Compound 12b, 2-(((3-((2-aminothiazol-5-yl)thio)-5-((naphthalen-2-yloxy)methyl)-4H-1,2,4-triazol-4-yl)imino)methyl)phenol]								77 to 78	202.0 and 202.2	60	60.1 nM	12.1
Oc1ccccc1C=Nn1c(S)nnc1COc1ccc2ccccc2c1 [Compound 9b, 2-(((3-mercapto-5-((naphthalen-2-yloxy)methyl)-4H-1,2,4-triazol-4-yl)imino)methyl)phenol]								208 to 219	40.4	190	190 nM	7.67
Nc1ncc(Sc2nnc(COc3ccc4ccccc4c3)n2N=Cc2cccc([N+](=O)[O-])c2)s1 [Compound 12c, 5-((5-((naphthalen-2-yloxy)methyl)-4-((3-nitrobenzylidene)amino)-4H-1,2,4-triazol-3-yl)thio)thiazol-2-amine]								182 to 184	325.0 and 311.8	40	40.1 nM	12.5
O=C(CCl)Sc1nnc(COc2ccc3ccccc3c2)n1N=Cc1cccc([N+](=O)[O-])c1 [Compound 10c]									84.3	120	120 nM	10.1
Sc1nnc(COc2ccc3ccccc3c2)n1N=Cc1ccccc1 [Compound 9a, 4-(benzylideneamino)-5-((naphthalen-2-yloxy)methyl)-4H-1,2,4-triazole-3-thiol]								184 to 186	31.5	220	220 nM	6.93
O=C(CCl)Sc1nnc(COc2ccc3ccccc3c2)n1N=Cc1ccccc1 [Compound 10a]									74.8	130	130 nM	9.72
Nc1ncc(Sc2nnc(COc3ccc4ccccc4c3)n2N=Cc2ccccc2O)o1 [Compound 11b, 2-(((3-((2-aminooxazol-5-yl)thio)-5-((naphthalen-2-yloxy)methyl)-4H-1,2,4-triazol-4-yl)imino)methyl)phenol]								80 to 81	119.2	90	89.9 nM	10.7
